Tested on: P12-Ichikawa
Assay: cell viability relative to DMSO control; higher = less cytotoxic
Conditions: 48 h
Procedure, shortened: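 Library compounds in DMSO were pin-dosed in an 11-point threefold series (47 μM to 0.79 nM) onto leukemia cells in 1536-well plates (5 μl). Plates held 500 cells/well of NOMO1 or SEM or 1000 cells/well of P12-Ichikawa, each adapted for at least four passages in each medium. Luminescence was read with CellTiter-Glo One after 48 h at 37°C. Viability means the per-plate percentage relative to DMSO wells, using cell-free wells as background.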

[1] = HPLM + 10% dialyzed FBS, 0.000781 µM
[2] = HPLM + 10% dialyzed FBS, 0.00234 µM
[3] = HPLM + 10% dialyzed FBS, 0.00702 µM
[4] = HPLM + 10% dialyzed FBS, 0.0211 µM
[5] = HPLM + 10% dialyzed FBS, 0.0632 µM
[6] = HPLM + 10% dialyzed FBS, 0.19 µM
[7] = HPLM + 10% dialyzed FBS, 0.569 µM
[8] = HPLM + 10% dialyzed FBS, 1.71 µM
[9] = HPLM + 10% dialyzed FBS, 5.12 µM
[10] = HPLM + 10% dialyzed FBS, 15.4 µM
[11] = HPLM + 10% dialyzed FBS, 46.1 µM
[12] = RPMI 5 mM glucose + 10% FBS, 0.000781 µM
[13] = RPMI 5 mM glucose + 10% FBS, 0.00234 µM
[14] = RPMI 5 mM glucose + 10% FBS, 0.00702 µM
[15] = RPMI 5 mM glucose + 10% FBS, 0.0211 µM
[16] = RPMI 5 mM glucose + 10% FBS, 0.0632 µM
[17] = RPMI 5 mM glucose + 10% FBS, 0.19 µM
[18] = RPMI 5 mM glucose + 10% FBS, 0.569 µM
[19] = RPMI 5 mM glucose + 10% FBS, 1.71 µM
[20] = RPMI 5 mM glucose + 10% FBS, 5.12 µM
[21] = RPMI 5 mM glucose + 10% FBS, 15.4 µM
[22] = RPMI 5 mM glucose + 10% FBS, 46.1 µM
[23] = RPMI 5 mM glucose + 10% dialyzed FBS, 0.000781 µM
[24] = RPMI 5 mM glucose + 10% dialyzed FBS, 0.00234 µM
[25] = RPMI 5 mM glucose + 10% dialyzed FBS, 0.00702 µM
[26] = RPMI 5 mM glucose + 10% dialyzed FBS, 0.0211 µM
[27] = RPMI 5 mM glucose + 10% dialyzed FBS, 0.0632 µM
[28] = RPMI 5 mM glucose + 10% dialyzed FBS, 0.19 µM
[29] = RPMI 5 mM glucose + 10% dialyzed FBS, 0.569 µM
[30] = RPMI 5 mM glucose + 10% dialyzed FBS, 1.71 µM
[31] = RPMI 5 mM glucose + 10% dialyzed FBS, 5.12 µM
[32] = RPMI 5 mM glucose + 10% dialyzed FBS, 15.4 µM
[33] = RPMI 5 mM glucose + 10% dialyzed FBS, 46.1 µM

With `FC1=CC=C(C=C1)N2/C=C\C=C(C(=O)NC3=CC=C(OC4=C5C=C[NH]C5=NC=C4)C(=C3)F)/C2=O` the cell viability [1] was 99%, the cell viability [2] was 111% and the cell viability [3] was 107%. The cell viability [4] was 114%, the cell viability [5] was 117% and the cell viability [6] was 118%. For the same molecule, the cell viability [7] was 122%, the cell viability [8] was 112% and the cell viability [9] was 114%. It also gave a cell viability [10] of 123%, a cell viability [11] of 115% and a cell viability [12] of 104%. The cell viability [13] was 111%, the cell viability [14] was 121% and the cell viability [15] was 112%. For the same molecule, the cell viability [16] was 132%, the cell viability [17] was 119% and the cell viability [18] was 128%. It also gave a cell viability [19] of 122%, a cell viability [20] of 127% and a cell viability [21] of 119%. The cell viability [22] was 111%, the cell viability [23] was 109% and the cell viability [24] was 107%. The cell viability [25] was 114%, the cell viability [26] was 125% and the cell viability [27] was 117%. For the same molecule, the cell viability [28] was 124%, the cell viability [29] was 125% and the cell viability [30] was 119%. The cell viability [31] was 129%, the cell viability [32] was 120% and the cell viability [33] was 114%.

For `C[N]1C=C(C=N1)C2=C3\C=N/NC(=O)C4=C3C(=CC(=C4)NC(=O)[C@H](N)C5CCCCC5)[NH]2`, the cell viability [1] was 103%, the cell viability [2] was 103% and the cell viability [3] was 99.7%. It also gave a cell viability [4] of 100%, a cell viability [5] of 99.7% and a cell viability [6] of 103%. For the same molecule, the cell viability [7] was 94.5%, the cell viability [8] was 81.1% and the cell viability [9] was 65.5%. For the same molecule, the cell viability [10] was 45.1%, the cell viability [11] was 12.3% and the cell viability [12] was 98.4%. It also gave a cell viability [13] of 101%, a cell viability [14] of 99.1% and a cell viability [15] of 99.9%. It also gave a cell viability [16] of 97.3%, a cell viability [17] of 98.5% and a cell viability [18] of 92.7%. The cell viability [19] was 85.3%, the cell viability [20] was 61.7% and the cell viability [21] was 21.8%. The cell viability [22] was 7.78%, the cell viability [23] was 96.2% and the cell viability [24] was 98%. For the same molecule, the cell viability [25] was 95.2%, the cell viability [26] was 90.5% and the cell viability [27] was 94.7%. For the same molecule, the cell viability [28] was 102%, the cell viability [29] was 85.4% and the cell viability [30] was 79.6%. The cell viability [31] was 58.8%, the cell viability [32] was 18.4% and the cell viability [33] was 11.5%.

Molecule `CNc1nc(Nc2ccc(C(=O)N3CCOCC3)cc2OC)ncc1Cl` has a cell viability [12] of 120%, a cell viability [13] of 116% and a cell viability [14] of 122%. It also gave a cell viability [15] of 119%, a cell viability [16] of 120% and a cell viability [17] of 115%. The cell viability [18] was 113%, the cell viability [19] was 107% and the cell viability [20] was 108%. For the same molecule, the cell viability [21] was 108%, the cell viability [22] was 101% and the cell viability [23] was 123%. For the same molecule, the cell viability [24] was 115%, the cell viability [25] was 121% and the cell viability [26] was 116%. The cell viability [27] was 123%, the cell viability [28] was 125% and the cell viability [29] was 116%. It also gave a cell viability [30] of 124%, a cell viability [31] of 112% and a cell viability [32] of 109%. The cell viability [33] was 104%.

Molecule `C[C@@H](Oc1cc(-c2cnn(C3CCNCC3)c2)cnc1N)c1c(Cl)ccc(F)c1Cl` has a cell viability [1] of 118%, a cell viability [2] of 119% and a cell viability [3] of 115%. It also gave a cell viability [4] of 118%, a cell viability [5] of 115% and a cell viability [6] of 120%. It also gave a cell viability [7] of 111%, a cell viability [8] of 95.7% and a cell viability [9] of 90.6%. The cell viability [10] was 73.5%, the cell viability [11] was 18.9% and the cell viability [12] was 116%. For the same molecule, the cell viability [13] was 118%, the cell viability [14] was 123% and the cell viability [15] was 116%. For the same molecule, the cell viability [16] was 124%, the cell viability [17] was 117% and the cell viability [18] was 115%. It also gave a cell viability [19] of 113%, a cell viability [20] of 82.2% and a cell viability [21] of 68.9%. The cell viability [22] was 21.4%.

With `CCC[S+]([O-])c1ccc2[nH]c(NC(=O)OC)nc2c1` (centres undefined) the cell viability [1] was 98.5%, the cell viability [2] was 101% and the cell viability [3] was 95.7%. For the same molecule, the cell viability [4] was 96.5%, the cell viability [5] was 101% and the cell viability [6] was 92.7%. For the same molecule, the cell viability [7] was 102%, the cell viability [8] was 91.3% and the cell viability [9] was 89.5%. For the same molecule, the cell viability [10] was 25.3%, the cell viability [11] was 22.6% and the cell viability [12] was 84.2%. It also gave a cell viability [13] of 89.9%, a cell viability [14] of 89% and a cell viability [15] of 89.2%. The cell viability [16] was 89.7%, the cell viability [17] was 93.9% and the cell viability [18] was 99.8%. It also gave a cell viability [19] of 85.7%, a cell viability [20] of 82% and a cell viability [21] of 51.1%. It also gave a cell viability [22] of 27%, a cell viability [23] of 92.9% and a cell viability [24] of 98.8%. It also gave a cell viability [25] of 87.7%, a cell viability [26] of 91.2% and a cell viability [27] of 95.7%. For the same molecule, the cell viability [28] was 87%, the cell viability [29] was 86.3% and the cell viability [30] was 84.3%. For the same molecule, the cell viability [31] was 90%, the cell viability [32] was 63% and the cell viability [33] was 34.7%.

Work on `COc1ccc(-c2ccc3ncc4c(c3c2)n(-c2ccc(N3CCNCC3)c(C(F)(F)F)c2)c(=O)n4C)cn1` yielded a cell viability [1] of 99.5%, a cell viability [2] of 92.5% and a cell viability [3] of 79.1%. For the same molecule, the cell viability [4] was 74.1%, the cell viability [5] was 72.5% and the cell viability [6] was 48.5%. It also gave a cell viability [7] of 48.9%, a cell viability [8] of 40.1% and a cell viability [9] of 30%. For the same molecule, the cell viability [10] was 4.22%, the cell viability [11] was 3.22% and the cell viability [12] was 81.7%. It also gave a cell viability [13] of 73.2%, a cell viability [14] of 72.3% and a cell viability [15] of 64.2%. It also gave a cell viability [16] of 59.4%, a cell viability [17] of 34.7% and a cell viability [18] of 22%. The cell viability [19] was 8.29%, the cell viability [20] was 6.08% and the cell viability [21] was 4.14%. The cell viability [22] was 4%, the cell viability [23] was 86.1% and the cell viability [24] was 91.5%. The cell viability [25] was 63%, the cell viability [26] was 65.8% and the cell viability [27] was 60.9%. It also gave a cell viability [28] of 47.1%, a cell viability [29] of 34% and a cell viability [30] of 5.19%. The cell viability [31] was 5.18%, the cell viability [32] was 4.63% and the cell viability [33] was 3.63%.

With `C[C@H](NC(=O)c1sccc1OCc1ccc(Cl)cc1)c1ccccc1` the cell viability [1] was 97.3%, the cell viability [2] was 87.7% and the cell viability [3] was 88.8%. It also gave a cell viability [4] of 83.9%, a cell viability [5] of 84.4% and a cell viability [6] of 78%. The cell viability [7] was 86.3%, the cell viability [8] was 87.2% and the cell viability [9] was 81.2%. For the same molecule, the cell viability [10] was 86.2%, the cell viability [11] was 82.7% and the cell viability [12] was 84.7%. The cell viability [13] was 84.5%, the cell viability [14] was 80.8% and the cell viability [15] was 85.2%. The cell viability [16] was 92%, the cell viability [17] was 86.4% and the cell viability [18] was 81%. For the same molecule, the cell viability [19] was 85%, the cell viability [20] was 74.5% and the cell viability [21] was 83.5%. It also gave a cell viability [22] of 78%, a cell viability [23] of 84.6% and a cell viability [24] of 90%. For the same molecule, the cell viability [25] was 91.9%, the cell viability [26] was 88.3% and the cell viability [27] was 88.4%. It also gave a cell viability [28] of 83.2%, a cell viability [29] of 91.1% and a cell viability [30] of 77.1%. For the same molecule, the cell viability [31] was 74.5%, the cell viability [32] was 82.1% and the cell viability [33] was 86%.
